The text below walks through data of patent US10988474B2, “Compounds acting at multiple prostaglandin receptors giving a general anti-inflammatory response” (ALLERGAN, INC., priority 2011, dated 2021).

Holding throughout (assay type): cell-based
Test [1] deals with T1, human prostanoid EP1 receptor (Homo sapiens, UniProt P34995).
T1 construct: expressed in transfected cells
T1 sequence (P34995 1-402): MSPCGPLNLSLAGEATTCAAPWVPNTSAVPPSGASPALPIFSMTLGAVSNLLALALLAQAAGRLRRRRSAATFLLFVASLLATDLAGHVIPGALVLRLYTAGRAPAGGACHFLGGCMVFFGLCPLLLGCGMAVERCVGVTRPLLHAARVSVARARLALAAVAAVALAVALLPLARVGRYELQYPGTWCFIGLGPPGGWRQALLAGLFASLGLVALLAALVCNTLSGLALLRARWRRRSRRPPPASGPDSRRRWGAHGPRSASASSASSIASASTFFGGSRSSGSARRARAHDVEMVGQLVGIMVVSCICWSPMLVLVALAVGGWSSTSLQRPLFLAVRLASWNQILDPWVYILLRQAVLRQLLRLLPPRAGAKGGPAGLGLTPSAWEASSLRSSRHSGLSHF
Kind of test: FLIPR Ca2+ signaling PG antagonist assay, EP1 stable cell line. Particulars: HEK-293 EBNA cells, human recombinant EP1, no exogenous G-protein; standard agonist PGE2. The procedure: (§1) The above compounds were tested for PG antagonist activity as follows using human recombinant prostanoid receptor (DP1, EP1-4, FP, IP and TP) stable cell lines: In order to measure the response of Gs and Gi coupled prostanoid receptors as a Ca^2+ signal, chimeric G protein cDNAs were used. Stable cell lines over-expressing human prostanoid DP1, EP1-4, FP, IP, and TP receptors were established as follows:
(§2) Briefly, human prostanoid DP1, EP2, and EP4 receptor cDNAs were co-transfected with chimeric Gqs cDNA containing a haemagglutanin (HA) epitope; human prostanoid EP3 receptors were co-transfected with chimeric Gqi-HA; human EP1, FP, IP, and TP receptor cDNAs were expressed with no exogenous G-proteins. Gqs and Gqi chimeric cDNAs (Molecular Devices, Sunnyvale, Calif., U.S.A.), as well as cDNAs of prostanoid receptors, were cloned into a pCEP4 vector with a hygromycin B selection marker. Transfection into HEK-293 EBNA (Epstein-Barr virus nuclear antigen) cells was achieved by the FuGENE 6 transfection Reagent (Roche Applied Science, Indianapolis, Ind., USA). Stable transfectants were selected according to hygromycin resistance. Because Gqs and Gqi contained an HA epitope, G-protein expression was detected by Western blotting analysis using anti-mouse HA monoclonal antibody and horseradish peroxidase (HRP)-conjugated secondary antibody, while functional expression of prostanoid receptors was detected by FLIPR screening (Matias et al., 2004). These stable cell lines were validated using previously published antagonists at 10 μM against serial dilutions of standard agonists by FLIPR functional assays for Ca^2+ Signaling (as described below).
(§3) Ca^2+ signaling studies were performed using a FLIPR TETRA system (Molecular Devices, Sunnyvale, Calif., USA) in the 384-format. This is a high-throughput instrument for cell-based assays to monitor Ca^2+ signaling associated with GPCRs and ion channels. Cells were seeded at a density of 5×10^4 cells/well in BioCoat poly-D-lysine coated, black wall, clear bottom 384-well plates (BD Biosciences, Franklin lakes, NJ, USA) and allowed to attach overnight in an incubator at 37° C. The cells were then washed twice with HBSS-HEPES buffer (Hanks' balanced salt solution without bicarbonate and phenol red, 20 mM HEPES, pH 7.4) using an ELx405 Select CW Microplate Washer (BioTek, Winooski, Vt., USA). After 60 min of dye-loading in the dark using the Ca^2+-sensitive dye Fluo-4AM (Invitrogen, Carlsbad, Calif., USA), at a final concentration of 2×10^−6M, the plates were washed 4 times with HBSS-HEPES buffer to remove excess dye and leaving 50 μl of buffer in each well. The plates were then placed in the FLIPR TETRA instrument and allowed to equilibrate at 37° C. Compounds were added in a 25 μl volume to each well to give final concentrations of 0.1 μM, 0.3 μM, 1 μM, 3 μM, 10 μM, and 30 μM; or 0.067 μM, 0.1 μM, 0.2 μM, 0.3 μM, 0.67 μM, and 1 μM for cells over-expressing TP receptors. After 4.5 minutes, a 7-point serial dilution of the standard agonist for the corresponding receptor, in a 25 μl volume was injected at the final concentrations from 10^−11M to 10^−5M in 10-fold serial dilution increments for cells expressing human recombinant DP1, EP1, EP2, EP3, EP4, FP, and IP receptors. The dose range for the standard agonist for human recombinant TP receptors was from 10^−12M to 10^−6M. HBSS-HEPES buffer was used as the negative control for the standard agonists. Cells were excited with LED (light emitting diode) excitation at 470-495 nm and emission was measured through an emission filter at 515-575 nm. Assay plates were read for 3.5 minutes using the FLIPR^TETRA. The peak increase in fluorescence intensity was recorded for each well. On each plate, negative controls, dose response of positive controls, and co-treatments of antagonist-agonist for each dose were in triplicates. Standard agonists were as follows: DP=BW 245C, EP1-EP4=PGE2, FP=17-phenyl-PGF2α, IP=Cicaprost, and TP=U-46619. […]

The target in test [2] is T2, human prostanoid EP2 receptor (Homo sapiens, UniProt P43116).
T2 construct: expressed in transfected cells
T2 sequence (P43116 whole entry): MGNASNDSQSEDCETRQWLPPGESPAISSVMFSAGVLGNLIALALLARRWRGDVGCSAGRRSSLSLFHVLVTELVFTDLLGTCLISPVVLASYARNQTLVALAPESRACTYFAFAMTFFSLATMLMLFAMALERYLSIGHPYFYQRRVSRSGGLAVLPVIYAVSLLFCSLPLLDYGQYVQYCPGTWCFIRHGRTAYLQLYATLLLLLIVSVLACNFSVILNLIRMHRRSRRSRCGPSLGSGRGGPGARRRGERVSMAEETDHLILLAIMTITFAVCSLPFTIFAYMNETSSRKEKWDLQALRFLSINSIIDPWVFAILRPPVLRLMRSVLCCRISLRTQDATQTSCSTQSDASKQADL
Put plainly: FLIPR Ca2+ signaling PG antagonist assay, EP2 stable cell line. Particulars: HEK-293 EBNA cells, human recombinant EP2 with chimeric Gqs; standard agonist PGE2. As for the experimental part: as §1, §2, §3

Test [3] deals with T3, human prostanoid EP3 receptor (Homo sapiens, UniProt P43115).
T3 construct: expressed in transfected cells
T3 sequence (P43115 1-390): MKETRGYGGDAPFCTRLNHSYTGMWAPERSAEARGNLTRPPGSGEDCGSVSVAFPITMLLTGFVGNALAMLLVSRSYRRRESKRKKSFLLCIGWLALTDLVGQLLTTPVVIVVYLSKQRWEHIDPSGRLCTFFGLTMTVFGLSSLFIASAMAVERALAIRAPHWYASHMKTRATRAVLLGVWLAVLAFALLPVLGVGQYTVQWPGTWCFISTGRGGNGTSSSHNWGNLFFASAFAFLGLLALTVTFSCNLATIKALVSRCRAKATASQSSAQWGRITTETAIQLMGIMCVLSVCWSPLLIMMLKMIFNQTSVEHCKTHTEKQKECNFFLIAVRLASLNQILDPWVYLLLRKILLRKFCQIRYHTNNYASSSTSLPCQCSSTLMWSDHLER
Kind of test: FLIPR Ca2+ signaling PG antagonist assay, EP3 stable cell line. Particulars: HEK-293 EBNA cells, human recombinant EP3 with chimeric Gqi; standard agonist PGE2. The procedure:
as §1, §2, §3

Test [4] addresses T4, human prostanoid EP4 receptor (Homo sapiens, UniProt P35408).
T4 construct: expressed in transfected cells
Kind of test: FLIPR Ca2+ signaling PG antagonist assay, EP4 stable cell line. The conditions noted are these: HEK-293 EBNA cells, human recombinant EP4 with chimeric Gqs; standard agonist PGE2. As for the experimental part:
as §1, §2, §3

The target in test [5] is T5, human prostanoid IP receptor (Homo sapiens, UniProt P43119).
T5 construct: expressed in transfected cells
T5 sequence (P43119 whole entry): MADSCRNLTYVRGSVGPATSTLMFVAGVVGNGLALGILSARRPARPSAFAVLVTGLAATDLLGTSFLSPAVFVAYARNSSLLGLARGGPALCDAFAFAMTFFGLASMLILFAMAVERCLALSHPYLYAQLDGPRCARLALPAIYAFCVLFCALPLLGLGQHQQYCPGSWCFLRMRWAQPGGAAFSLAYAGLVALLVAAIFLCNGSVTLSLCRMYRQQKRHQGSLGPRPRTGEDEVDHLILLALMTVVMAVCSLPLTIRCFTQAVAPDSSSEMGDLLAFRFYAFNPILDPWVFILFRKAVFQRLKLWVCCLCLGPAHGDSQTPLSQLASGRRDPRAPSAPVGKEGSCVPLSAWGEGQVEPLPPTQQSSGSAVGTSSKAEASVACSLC
Put plainly: FLIPR Ca2+ signaling PG antagonist assay, IP stable cell line. The conditions noted are these: HEK-293 EBNA cells, human recombinant IP, no exogenous G-protein; standard agonist Cicaprost. The procedure:
as §1, §2, §3

Bounds are passed on as bounds.

T4 sequence (P35408 whole entry): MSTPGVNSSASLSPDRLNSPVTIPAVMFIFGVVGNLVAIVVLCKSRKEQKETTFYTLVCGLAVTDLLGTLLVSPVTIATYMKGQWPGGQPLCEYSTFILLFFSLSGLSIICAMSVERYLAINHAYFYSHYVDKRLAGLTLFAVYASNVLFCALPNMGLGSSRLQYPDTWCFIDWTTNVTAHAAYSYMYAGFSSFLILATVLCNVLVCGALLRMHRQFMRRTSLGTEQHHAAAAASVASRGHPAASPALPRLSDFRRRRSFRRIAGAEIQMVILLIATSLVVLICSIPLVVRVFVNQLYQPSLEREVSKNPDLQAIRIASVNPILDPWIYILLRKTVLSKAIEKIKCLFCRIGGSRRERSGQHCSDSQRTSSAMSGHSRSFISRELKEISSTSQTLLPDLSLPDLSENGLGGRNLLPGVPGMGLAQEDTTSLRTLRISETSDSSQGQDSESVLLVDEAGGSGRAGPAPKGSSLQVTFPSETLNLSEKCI

Regarding `CC1(COc2ccc(Br)cc2Cn2ncc3cc(C(=O)O)ccc32)CC1` [Example 19], the Kb (commonly the equilibrium dissociation constant of an antagonist, usually derived from a functional assay) turned out to be 12 nM in test [1]; 8800 nM in test [2]; 3600 nM in test [3]; 14 nM in test [4]; 4600 nM in test [5].

For the compound `CC(C)COc1ccc(OC(F)(F)F)cc1Cn1ncc2cc(C(=O)O)ccc21` [Example 20, 1-(2-Isobutoxy-5-Trifluoromethoxy-Benzyl)-1H-Indazole-5-Carboxylic Acid], the Kb in test [1] is 30 nM; in test [2], no less than 10000 nM; in test [3], no less than 10000 nM; in test [4], 30 nM; in test [5] it was 2700 nM.

For `Cc1nn(Cc2cc(Br)ccc2OCC(C)C)c2ccc(C(=O)O)cc12` [Example 21, 1-(5-Bromo-2-Isobutoxy-Benzyl)-3-Methyl-1H-Indazole-5-Carboxylic Acid], the Kb in test [1] came out at 14 nM; in test [2], 3500 nM; in test [3], 2200 nM; in test [4], 70 nM; in test [5], 900 nM.

Turning to `Cc1nn(Cc2cc(OC(F)(F)F)ccc2OCC(C)C)c2ccc(C(=O)O)cc12` [Example 22, 1-(2-Isobutoxy-5-Trifluoromethoxy-Benzyl)-3-Methyl-1H-Indazole-5-Carboxylic Acid], the Kb in test [1] is 16 nM; in test [2] it was no less than 10000 nM; in test [3] it was no less than 10000 nM; in test [4], 350 nM; in test [5], 6000 nM.

For the compound `CCC(CC)COc1ccc(Cl)cc1Cn1nc(C)c2cc(C(=O)O)ccc21` [Example 23, 1-[5-Chloro-2-(2-Ethyl-Butoxy)-Benzyl]-3-Methyl-1H-Indazole-5-Carboxylic Acid], the Kb in test [1] was determined as 30 nM; in test [2] it was 7100 nM; in test [3], 1200 nM; in test [4], 50 nM; in test [5], 500 nM.

In the case of `Cc1nn(Cc2cc(Cl)ccc2OCC(C)C)c2ccc(C(=O)O)cc12` [Example 24, 1-(5-Chloro-2-Isobutoxy-Benzyl)-3-Methyl-1H-Indazole-5-Carboxylic Acid], the Kb stood at 20 nM in test [1]; 4500 nM in test [2]; 2440 nM in test [3]; 150 nM in test [4]; 1430 nM in test [5].

In the case of `Cc1nn(Cc2cc(C(F)(F)F)ccc2OCC(C)C)c2ccc(C(=O)O)cc12` [Example 25, 1-(2-Isobutoxy-5-Trifluoromethyl-Benzyl)-3-Methyl-1H-Indazole-5-Carboxylic Acid], the Kb is 27 nM in test [1]; 9300 nM in test [2]; 4500 nM in test [3]; 160 nM in test [4]; 1030 nM in test [5].

Regarding `CCC(CC)COc1ccc(C(F)(F)F)cc1Cn1nc(C)c2cc(C(=O)O)ccc21` [Example 26, 1-[2-(2-Ethyl-Butoxy)-5-Trifluoromethyl-Benzyl]-3-Methyl-1H-Indazole-5-Carboxylic Acid], the Kb is 80 nM in test [1]; no less than 10000 nM in test [2]; 3300 nM in test [3]; 70 nM in test [4]; 1800 nM in test [5].

As to `CCC(CC)COc1ccc(Br)cc1Cn1nc(C)c2cc(C(=O)O)ccc21` [Example 27, 1-[5-Bromo-2-(2-Ethyl-Butoxy)-Benzyl]-3-Methyl-1H-Indazole-5-Carboxylic Acid], the Kb came to 110 nM in test [1]; 3640 nM in test [2]; 2600 nM in test [3]; 53 nM in test [4]; 440 nM in test [5].

Consider `Cc1nn(Cc2cc(Br)ccc2OCC2(C)CC2)c2ccc(C(=O)O)cc12` [Example 28, 1-[5-Bromo-2-(1-Methyl-Cyclopropylmethoxy)-Benzyl]-3-Methyl-1H-Indazole-5-Carboxylic Acid], for which the Kb was determined as 43 nM in test [1]; 9200 nM in test [2]; 2220 nM in test [3]; 40 nM in test [4]; 1530 nM in test [5].
